Data published in patent publication US4826819A, “Piperidine analgesics” (priority 1986, dated 1989).
Where a name gives a salt, the structure may show the parent alone. Read-outs that look alike come from different tables or passages of the source.

Experiments:
[1] = molecular target: T1, K (Kappa) opioid receptor (K sites) (Cavia porcellus, UniProt P41144); test: Opiate receptor binding to K sites (tritiated Ethylketocyclazocine); parameters: species or system guinea pig
T1 construct: performed on fresh guinea pig brain homogenate; from tissue; host or cells: guinea pig whole brain without cerebellum, homogenate
Experimental: (§1) Radio receptor binding to μ and k sites is performed on fresh guinea pig brain homogenate prepared according to Kosterlitz. (1981).
(§2) Whole brain without cerebellum is homogenized in 50 mM, Tris-buffer (pH 7.4 at 0° C.) and centrifuged at 49,000×g×10 min. The pellet is then resuspended in the same buffer, incubated at 37° C. for 45 min. and centrifuged again.
(§3) 1.9 ml of the final homogenate (1:100 in Tris-pH 7.4, 0° C.) is used for the binding assay.
Binding to K sites (Magnan J., 1982)
The binding of tritiated Ethylketocyclazocine to brain homogenate is measured in the presence of 100 nanomolar D-Ala-D-LeuEnkephalin (DADLE) and 100 nanomolar DAGO, added to saturate the δ and μ opioid receptors respectively.
Final homogenate with solutions of the cold ligand and of the labelled ligand is incubated for 40 min at 25° C., filtered through Whatman GF/C glass filter discs and washed.
The radioactivity bound to the filters is counted by liquid scintillation spectrophotometry.
MR 2266,500 nM is utilized to determine the saturable binding.
(§4) For the calculation of the kinetic parameters of the binding of labelled and unlabelled ligands, the equilibrium dissociation constant (KD), and the inhibition constant (Ki) and the maximum number of binding sites (B max) are determined from saturation curves and competition experiments (Hill 1910; Scatchard 1949; Cheng and Prusoff 1973; Gillan et al. 1980).
(§5) A concentration of radioligand near KD is used in the binding assays evaluating our compounds.

[2] = Mouse Tail-flick test (analgesic activity); assay type: in vivo, mouse (male Charles River mice); conditions: for % Protection (percent number of mice doubling the initial reaction time): 1 mg Kg^-1, 30 min after dosing
[3] = molecular target: T2, μ opioid receptor (μ sites) (Cavia porcellus, UniProt A0ACM8Q262); test: Opiate receptor binding to μ sites (3H-DAGO)
T2 construct: 3H-DAGO displacement
Experimental: as §1, §2, §3
Binding to μ sites (Magnan J., 1982)
^3 H [D-Ala^2, MePhe^4, Gly-ol^5 ] Enkephalin (^3 H-DAGO), an enkephalin analogue that binds selectively to μ-receptors, is added to the biological substrate and incubated at 25° C. for 40 min., filtered through Whatman GF-C and washed with ice-cold Tris-buffer.
The filters are then dried, solubilized in Filtercount and the radioactivity monitored. Non specific binding is determined in the presence of 10^-6 M Naloxone.
as §4, §5

[4] = guinea pig brain homogenate, tritiated Ethylketocyclazocine with 100 nM DADLE and 100 nM DAGO, 25° C., 40 min, read-out: Ki, opiate receptor binding, K
[5] = sc, 0.5 h, subcutaneous, read-out: ED50 subcutaneous
[6] = guinea pig brain homogenate, 25° C., 40 min, read-out: Ki, opiate receptor binding, μ

T2 sequence (A0ACM8Q262 1-400): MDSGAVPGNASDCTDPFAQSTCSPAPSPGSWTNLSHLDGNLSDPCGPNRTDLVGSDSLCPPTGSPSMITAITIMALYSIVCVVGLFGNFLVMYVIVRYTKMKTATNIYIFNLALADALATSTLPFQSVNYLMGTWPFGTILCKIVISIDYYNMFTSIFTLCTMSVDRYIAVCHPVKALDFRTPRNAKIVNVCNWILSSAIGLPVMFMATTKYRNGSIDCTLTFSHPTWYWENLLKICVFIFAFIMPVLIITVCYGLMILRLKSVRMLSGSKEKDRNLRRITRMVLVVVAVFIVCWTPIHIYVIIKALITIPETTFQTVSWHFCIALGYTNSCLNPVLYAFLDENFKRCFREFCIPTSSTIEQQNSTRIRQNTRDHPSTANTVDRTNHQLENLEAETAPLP
T1 sequence (P41144 whole entry): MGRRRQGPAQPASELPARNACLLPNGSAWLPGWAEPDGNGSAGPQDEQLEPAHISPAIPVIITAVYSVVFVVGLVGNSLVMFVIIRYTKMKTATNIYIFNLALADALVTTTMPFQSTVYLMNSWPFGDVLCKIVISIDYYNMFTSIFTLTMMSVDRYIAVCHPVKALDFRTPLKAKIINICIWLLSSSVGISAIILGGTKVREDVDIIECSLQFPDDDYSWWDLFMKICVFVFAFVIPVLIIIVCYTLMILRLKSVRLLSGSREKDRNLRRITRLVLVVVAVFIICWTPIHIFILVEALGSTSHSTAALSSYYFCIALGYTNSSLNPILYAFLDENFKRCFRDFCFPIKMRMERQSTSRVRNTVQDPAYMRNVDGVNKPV

| Compound | Ki [1, 4] [nM] | ED50 ([2]; oral (os), read-out: ED50 oral) [mg/kg] | ED50 [2, 5] [mg/kg] | % Protection (percent number of mice doubling the initial reaction time) ([2]; subcutaneous) [%] | Ki [3, 6] [nM] | Ki [1] [nM] | Ki ([3]; read-out: Ki, opiate receptor binding, μ, guinea pig brain homogenate, 25° C., 40 min) [nM] |
| --- | --- | --- | --- | --- | --- | --- | --- |
| O=C(Cc1ccc(C(F)(F)F)cc1)N1CCCCC1CN1CCCC1 (racemic) [Example 5, (2R,S)-1-(4-trifluoronethylphenylacetyl)-2-(1pyrrolidinylmethyl)piperidine hydrochloride] | 3.59 | 1.08 | 0.23 | 100 | 3090 |  |  |
| O=C(Cc1cccc(C(F)(F)F)c1)N1CCCCC1CN1CCCC1 (racemic) [Example 2, (2R,S)-1-(3-trifluoromethylphenylacetyl)-2-(1-pyrrolidinylmethyl)piperidinehydrochloride hemihydrate] | 3.07 | 4.61 | 0.43 |  | > 10000 |  |  |
| O=C(Cc1cccc([N+](=O)[O-])c1)N1CCCCC1CN1CCCC1 (racemic) [Example 1, (2R,S)-1-(3-nitrophenylacetyl)-2-(1-Pyrrolidinylmethyl) piperidine hydrochloride] | 5.96 |  | 0.97 |  | > 10000 |  |  |
| O=C(Cc1ccc(Br)cc1)N1CCCCC1CN1CCCC1 (racemic) [Example 6, (2R,S)-1-(4-bromophenylacetyl)-2-(1-pyrrolidinylmethyl)piperidine hydrochloride] | 6.61 | 4.12 | 0.52 | 80 | 3130 |  |  |
| O=C(Cc1ccc(C(F)(F)F)cc1)N1CCCC[C@H]1CN1CCCC1 [Example 3, (2S)-1-(4-trifluoromethylphenylacetyl)-2-(1-pyrrolidinylmethyl) piperidine hydrochloride sesquihydrate] |  | 0.67 | 0.14 |  |  | 4.05 | 2540 |
| O=C(Cc1ccc([N+](=O)[O-])cc1)N1CCCCC1CN1CCCC1 (racemic) [Example 4, (2R,S)-1-(4-nitrophenylacetyl)-2-(1-pyrrolidinylmethyl)piperidine hydrochloride] | 37.9 | 5.45 | 0.55 | 80 | 12800 |  |  |
